In the kinase profiling compilation of Christmann-Franck et al. (2016):

How the values were obtained:
Experiment in all cases: SelectScreen, TR FRET
Conditions in all cases: compound 5.0 µM
MAP4K4 (human) = MAP4K4 (human) (UniProt O95819)
PRKCH (human) = PRKCH (human) (UniProt P24723)
ABL1 (human) = ABL1 (human) (UniProt P00519)
JAK3 JH1 JH2 (human) = JAK3 JH1 JH2 (human) (UniProt P52333)
LYN (human) = LYN (human) (UniProt P07948)
BLK (human) = BLK (human) (UniProt P51451)
ROCK1 (human) = ROCK1 (human) (UniProt Q13464)
GRK4 (human) = GRK4 (human) (UniProt P32298)
BMX (human) = BMX (human) (UniProt P51813)
[1] = system: MET (human), P08581 [M1250T]
Sequence of MET (human), P08581 [M1250T] (P08581 whole entry M1250T, looked up): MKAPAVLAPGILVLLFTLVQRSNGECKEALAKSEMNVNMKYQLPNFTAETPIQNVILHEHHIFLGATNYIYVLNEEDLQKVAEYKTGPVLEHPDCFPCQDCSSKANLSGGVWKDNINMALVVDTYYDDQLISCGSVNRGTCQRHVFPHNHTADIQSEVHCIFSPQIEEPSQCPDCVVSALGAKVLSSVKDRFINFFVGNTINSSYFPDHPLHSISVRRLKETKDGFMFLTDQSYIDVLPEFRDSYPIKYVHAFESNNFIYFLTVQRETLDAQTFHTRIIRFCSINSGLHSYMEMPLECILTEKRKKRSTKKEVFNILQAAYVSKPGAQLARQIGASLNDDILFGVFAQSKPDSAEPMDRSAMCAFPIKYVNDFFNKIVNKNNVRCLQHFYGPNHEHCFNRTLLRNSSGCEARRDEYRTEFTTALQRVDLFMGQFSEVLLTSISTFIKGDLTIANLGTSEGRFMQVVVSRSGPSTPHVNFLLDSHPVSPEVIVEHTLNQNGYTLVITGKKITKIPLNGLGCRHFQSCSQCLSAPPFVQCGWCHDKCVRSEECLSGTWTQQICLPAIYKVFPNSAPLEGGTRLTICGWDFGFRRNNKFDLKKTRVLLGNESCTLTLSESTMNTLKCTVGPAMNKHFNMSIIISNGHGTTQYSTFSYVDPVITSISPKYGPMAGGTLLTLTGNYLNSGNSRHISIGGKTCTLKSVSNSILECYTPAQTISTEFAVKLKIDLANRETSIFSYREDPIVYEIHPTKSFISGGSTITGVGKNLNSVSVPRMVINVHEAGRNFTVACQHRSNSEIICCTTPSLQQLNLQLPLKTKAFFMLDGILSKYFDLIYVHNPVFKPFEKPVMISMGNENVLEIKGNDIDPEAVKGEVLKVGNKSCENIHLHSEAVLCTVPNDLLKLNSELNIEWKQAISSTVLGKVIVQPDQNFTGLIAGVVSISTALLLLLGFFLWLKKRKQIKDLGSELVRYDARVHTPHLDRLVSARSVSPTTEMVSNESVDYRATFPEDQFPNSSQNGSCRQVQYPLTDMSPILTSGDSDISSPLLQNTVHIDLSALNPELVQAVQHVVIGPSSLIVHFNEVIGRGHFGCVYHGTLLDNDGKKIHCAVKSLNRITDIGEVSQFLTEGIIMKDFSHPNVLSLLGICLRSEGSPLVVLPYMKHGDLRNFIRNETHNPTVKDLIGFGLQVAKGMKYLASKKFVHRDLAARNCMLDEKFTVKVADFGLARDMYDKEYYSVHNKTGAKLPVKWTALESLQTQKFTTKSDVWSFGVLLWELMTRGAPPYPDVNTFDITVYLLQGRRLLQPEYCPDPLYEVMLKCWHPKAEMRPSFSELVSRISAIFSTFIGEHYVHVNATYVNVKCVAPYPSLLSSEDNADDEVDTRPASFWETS

PRKX (human) = PRKX (human) (UniProt P51817)
MAPK12 (human) = MAPK12 (human) (UniProt P53778)
SGK1 (human) = SGK1 (human) (UniProt O00141)
RPS6KA4 KD1 KD2 (human) = RPS6KA4 KD1 KD2 (human) (UniProt O75676)
ADRBK1 (human) = ADRBK1 (human) (UniProt P25098)
SRMS (human) = SRMS (human) (UniProt Q9H3Y6)
RPS6KB1 (human) = RPS6KB1 (human) (UniProt P23443)
CSK (human) = CSK (human) (UniProt P41240)
PRKCZ (human) = PRKCZ (human) (UniProt Q05513)
[2] = system: ABL1 (human), P00519 [Y253F]
EPHA2 (human) = EPHA2 (human) (UniProt P29317)
TSSK1B (human) = TSSK1B (human) (UniProt Q9BXA7)
Sequence of TSSK1B (human) (Q9BXA7 whole entry, looked up): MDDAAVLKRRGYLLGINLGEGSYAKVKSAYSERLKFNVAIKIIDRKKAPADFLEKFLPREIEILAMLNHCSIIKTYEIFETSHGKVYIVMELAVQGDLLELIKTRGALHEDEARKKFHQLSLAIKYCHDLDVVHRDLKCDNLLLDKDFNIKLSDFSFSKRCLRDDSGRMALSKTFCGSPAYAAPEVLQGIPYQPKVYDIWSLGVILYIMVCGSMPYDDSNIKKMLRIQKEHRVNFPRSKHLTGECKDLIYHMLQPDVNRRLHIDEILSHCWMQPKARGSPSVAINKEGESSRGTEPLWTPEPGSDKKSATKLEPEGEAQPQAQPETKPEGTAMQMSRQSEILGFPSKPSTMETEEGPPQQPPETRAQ

[3] = system: KIT (human), P10721 [T670I]
PTK6 (human) = PTK6 (human) (UniProt Q13882)
GRK7 (human) = GRK7 (human) (UniProt Q8WTQ7)
MINK1 (human) = MINK1 (human) (UniProt Q8N4C8)
[4] = system: EGFR (human), P00533 [L858R]
NEK1 (human) = NEK1 (human) (UniProt Q96PY6)
[5] = system: FLT3 (human), P36888 [D835Y]
NTRK1 (human) = NTRK1 (human) (UniProt P04629)
CAMK1D (human) = CAMK1D (human) (UniProt Q8IU85)
MAP2K1 (human) = MAP2K1 (human) (UniProt Q02750)
GSK3B (human) = GSK3B (human) (UniProt P49841)
MAP2K6 (human) = MAP2K6 (human) (UniProt P52564)
Sequence of MAP2K6 (human) (P52564 whole entry, looked up): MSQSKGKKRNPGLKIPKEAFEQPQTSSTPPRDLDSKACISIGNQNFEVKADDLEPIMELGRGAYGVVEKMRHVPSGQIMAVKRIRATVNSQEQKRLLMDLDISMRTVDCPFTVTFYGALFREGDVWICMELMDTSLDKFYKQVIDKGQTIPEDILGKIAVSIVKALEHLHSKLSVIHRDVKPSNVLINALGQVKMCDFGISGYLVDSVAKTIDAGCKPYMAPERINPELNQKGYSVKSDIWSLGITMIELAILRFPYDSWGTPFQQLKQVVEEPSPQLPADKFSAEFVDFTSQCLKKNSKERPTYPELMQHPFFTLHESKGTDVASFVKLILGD

AURKB (human) = AURKB (human) (UniProt Q96GD4)
ABL2 (human) = ABL2 (human) (UniProt P42684)
EPHA3 (human) = EPHA3 (human) (UniProt P29320)
Sequence of EPHA3 (human) (P29320 whole entry, looked up): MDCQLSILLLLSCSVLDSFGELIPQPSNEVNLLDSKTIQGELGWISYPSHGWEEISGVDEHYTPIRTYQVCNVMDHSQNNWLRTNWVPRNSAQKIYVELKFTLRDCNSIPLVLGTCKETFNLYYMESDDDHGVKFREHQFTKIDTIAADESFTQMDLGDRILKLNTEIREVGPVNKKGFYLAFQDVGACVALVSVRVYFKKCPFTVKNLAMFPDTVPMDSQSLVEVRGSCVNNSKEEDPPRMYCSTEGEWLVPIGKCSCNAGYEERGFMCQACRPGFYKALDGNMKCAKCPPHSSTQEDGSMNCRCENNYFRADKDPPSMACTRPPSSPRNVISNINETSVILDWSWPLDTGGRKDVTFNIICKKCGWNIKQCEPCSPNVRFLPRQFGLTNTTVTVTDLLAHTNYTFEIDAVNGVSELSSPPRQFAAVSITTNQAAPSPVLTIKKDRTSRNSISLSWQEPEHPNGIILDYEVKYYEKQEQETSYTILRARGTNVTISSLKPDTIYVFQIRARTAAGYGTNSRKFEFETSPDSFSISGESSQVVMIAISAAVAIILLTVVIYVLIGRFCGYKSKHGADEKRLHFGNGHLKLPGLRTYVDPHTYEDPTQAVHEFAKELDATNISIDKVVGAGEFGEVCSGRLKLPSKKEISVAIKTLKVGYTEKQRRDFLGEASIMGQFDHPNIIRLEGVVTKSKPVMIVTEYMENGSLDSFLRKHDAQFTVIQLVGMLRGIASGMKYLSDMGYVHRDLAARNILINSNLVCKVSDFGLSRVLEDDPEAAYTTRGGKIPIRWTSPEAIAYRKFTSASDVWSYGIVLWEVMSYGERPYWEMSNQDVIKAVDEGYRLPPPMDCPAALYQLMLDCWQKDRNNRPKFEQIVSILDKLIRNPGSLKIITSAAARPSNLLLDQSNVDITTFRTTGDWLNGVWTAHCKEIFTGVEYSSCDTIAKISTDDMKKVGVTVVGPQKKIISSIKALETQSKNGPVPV

CAMK2B (human) = CAMK2B (human) (UniProt Q13554)
Sequence of CAMK2B (human) (Q13554 whole entry, looked up): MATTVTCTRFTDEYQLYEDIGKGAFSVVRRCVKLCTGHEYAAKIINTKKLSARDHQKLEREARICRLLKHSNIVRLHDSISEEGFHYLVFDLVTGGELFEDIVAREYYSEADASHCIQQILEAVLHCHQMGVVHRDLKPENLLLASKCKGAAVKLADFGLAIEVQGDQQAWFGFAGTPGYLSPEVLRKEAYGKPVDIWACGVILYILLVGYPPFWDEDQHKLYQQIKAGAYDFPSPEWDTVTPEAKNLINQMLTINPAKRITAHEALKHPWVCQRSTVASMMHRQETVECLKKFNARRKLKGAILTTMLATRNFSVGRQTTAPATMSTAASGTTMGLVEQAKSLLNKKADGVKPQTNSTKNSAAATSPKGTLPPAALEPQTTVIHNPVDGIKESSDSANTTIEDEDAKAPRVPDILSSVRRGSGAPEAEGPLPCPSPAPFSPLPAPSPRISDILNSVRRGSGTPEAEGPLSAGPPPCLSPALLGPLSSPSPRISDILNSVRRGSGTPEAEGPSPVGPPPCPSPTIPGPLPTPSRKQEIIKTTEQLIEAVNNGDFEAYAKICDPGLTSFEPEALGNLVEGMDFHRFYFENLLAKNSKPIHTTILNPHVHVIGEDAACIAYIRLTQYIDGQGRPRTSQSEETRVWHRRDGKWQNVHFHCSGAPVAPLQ

PASK (human) = PASK (human) (UniProt Q96RG2)
Sequence of PASK (human) (Q96RG2 whole entry, looked up): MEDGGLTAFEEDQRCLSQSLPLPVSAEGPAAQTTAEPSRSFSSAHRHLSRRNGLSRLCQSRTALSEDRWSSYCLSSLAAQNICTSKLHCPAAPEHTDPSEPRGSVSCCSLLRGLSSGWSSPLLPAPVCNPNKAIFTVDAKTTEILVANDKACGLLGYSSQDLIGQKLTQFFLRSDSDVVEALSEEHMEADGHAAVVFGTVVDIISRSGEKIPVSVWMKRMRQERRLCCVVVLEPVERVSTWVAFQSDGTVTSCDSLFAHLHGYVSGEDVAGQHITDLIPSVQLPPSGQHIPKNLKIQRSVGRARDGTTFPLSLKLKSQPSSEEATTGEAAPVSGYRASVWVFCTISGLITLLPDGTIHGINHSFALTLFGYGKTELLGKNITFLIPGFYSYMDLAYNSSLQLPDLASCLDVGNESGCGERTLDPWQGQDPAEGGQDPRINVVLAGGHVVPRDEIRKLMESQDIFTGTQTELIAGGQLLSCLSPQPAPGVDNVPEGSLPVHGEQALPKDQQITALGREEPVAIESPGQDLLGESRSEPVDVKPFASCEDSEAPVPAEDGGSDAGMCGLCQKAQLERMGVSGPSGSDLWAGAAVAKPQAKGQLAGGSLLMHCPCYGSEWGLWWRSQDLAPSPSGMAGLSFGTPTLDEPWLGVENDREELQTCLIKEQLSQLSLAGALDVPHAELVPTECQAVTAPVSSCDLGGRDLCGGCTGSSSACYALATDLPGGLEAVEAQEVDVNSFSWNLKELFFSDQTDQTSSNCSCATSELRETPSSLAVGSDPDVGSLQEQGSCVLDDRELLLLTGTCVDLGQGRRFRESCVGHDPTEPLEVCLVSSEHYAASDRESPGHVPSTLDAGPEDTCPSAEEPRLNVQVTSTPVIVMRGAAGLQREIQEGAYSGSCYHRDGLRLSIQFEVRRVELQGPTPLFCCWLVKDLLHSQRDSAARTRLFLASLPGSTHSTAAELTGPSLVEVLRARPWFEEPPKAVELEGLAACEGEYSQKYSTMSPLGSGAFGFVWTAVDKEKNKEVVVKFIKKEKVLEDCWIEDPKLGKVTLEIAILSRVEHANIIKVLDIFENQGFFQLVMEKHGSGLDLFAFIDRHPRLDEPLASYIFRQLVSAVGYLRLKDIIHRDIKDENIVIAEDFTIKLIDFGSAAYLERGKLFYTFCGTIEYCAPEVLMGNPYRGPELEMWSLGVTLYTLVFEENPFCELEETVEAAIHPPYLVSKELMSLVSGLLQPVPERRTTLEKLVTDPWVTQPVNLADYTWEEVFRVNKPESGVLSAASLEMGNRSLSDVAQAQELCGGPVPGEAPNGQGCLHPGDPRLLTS

TAOK2 (human) = TAOK2 (human) (UniProt Q9UL54)

Question: With `Nc1cc(C(F)(F)F)c(-c2cc(N3CCOCC3)nc(N3CCOCC3)n2)cn1` as the compound, how does the inhibition (MAP4K4 (human)) read?
Answer: Its inhibition is 1%.

Question: And the inhibition (PRKCH (human))?
Answer: Its inhibition is 4%.

Question: And the inhibition (ABL1 (human))?
Answer: Its inhibition is 3%.

Question: And the inhibition (JAK3 JH1 JH2 (human))?
Answer: The inhibition was 7%.

Question: And the inhibition (LYN (human))?
Answer: The inhibition was 6%.

Question: What about the inhibition (BLK (human)) of the same compound?
Answer: Its inhibition is -3%.

Question: What about the inhibition (ROCK1 (human)) of the same compound?
Answer: Its inhibition is -2%.

Question: What about the inhibition (GRK4 (human)) of the same compound?
Answer: Its inhibition is 2%.

Question: What about the inhibition (BMX (human)) of the same compound?
Answer: The inhibition was 3%.

Question: What about the inhibition [1] of the same compound?
Answer: Its inhibition is 1%.

Question: What about the inhibition (PRKX (human)) of the same compound?
Answer: Its inhibition is 0%.

Question: What about the inhibition (MAPK12 (human)) of the same compound?
Answer: The inhibition was 3%.

Question: And the inhibition (SGK1 (human))?
Answer: The inhibition was 25%.

Question: What about the inhibition (RPS6KA4 KD1 KD2 (human)) of the same compound?
Answer: Its inhibition is 6%.

Question: And the inhibition (ADRBK1 (human))?
Answer: Its inhibition is 1%.

Question: And the inhibition (SRMS (human))?
Answer: The inhibition was 13%.

Question: And the inhibition (RPS6KB1 (human))?
Answer: The inhibition was 8%.

Question: What about the inhibition (CSK (human)) of the same compound?
Answer: The inhibition was 5%.

Question: And the inhibition (PRKCZ (human))?
Answer: The inhibition was 2%.

Question: And the inhibition [2]?
Answer: The inhibition was 1%.

Question: And the inhibition (EPHA2 (human))?
Answer: The inhibition was 8%.

Question: What about the inhibition (TSSK1B (human)) of the same compound?
Answer: Its inhibition is -4%.

Question: And the inhibition [3]?
Answer: Its inhibition is 13%.

Question: What about the inhibition (PTK6 (human)) of the same compound?
Answer: The inhibition was -10%.

Question: What about the inhibition (GRK7 (human)) of the same compound?
Answer: The inhibition was 0%.

Question: What about the inhibition (MINK1 (human)) of the same compound?
Answer: The inhibition was 4%.

Question: And the inhibition [4]?
Answer: Its inhibition is 12%.

Question: And the inhibition (NEK1 (human))?
Answer: The inhibition was 8%.

Question: What about the inhibition [5] of the same compound?
Answer: Its inhibition is 11%.

Question: What about the inhibition (NTRK1 (human)) of the same compound?
Answer: Its inhibition is 9%.

Question: What about the inhibition (CAMK1D (human)) of the same compound?
Answer: Its inhibition is 12%.

Question: And the inhibition (MAP2K1 (human))?
Answer: Its inhibition is 4%.

Question: What about the inhibition (GSK3B (human)) of the same compound?
Answer: The inhibition was 7%.

Question: And the inhibition (MAP2K6 (human))?
Answer: Its inhibition is 6%.

Question: What about the inhibition (AURKB (human)) of the same compound?
Answer: Its inhibition is 11%.

Question: What about the inhibition (ABL2 (human)) of the same compound?
Answer: The inhibition was -3%.

Question: What about the inhibition (EPHA3 (human)) of the same compound?
Answer: Its inhibition is -2%.

Question: And the inhibition (CAMK2B (human))?
Answer: The inhibition was 9%.

Question: And the inhibition (PASK (human))?
Answer: Its inhibition is -1%.

Question: What about the inhibition (TAOK2 (human)) of the same compound?
Answer: Its inhibition is 6%.
